# Experimental data published in patent US12630555B2, “Substituted pyrrolo[1,2-a]quinoxalin-4(5H)-ones as CX3CR1 antagonists” (Drexel University, priority 2017, dated 2026).
# Several values for one entry are separate records, joined by “and”; a condition that tells them apart may be missing. Equal values may be shown once. Read-outs that look alike come from different tables or passages of the source.
# Assays:
# [1] = system: MDA-231 human breast cancer cells; experiment: Model of tumor seeding: MDA-231 cells inoculated intracardially, DTCs in skeleton at 24 hours; conditions: for seeding of the skeleton by MDA-231 breast cancer cells: SCID mice, i.p. one hour before and 3 hours after inoculation (Compound XXII 10 mg/kg); for reduction in DTCs vs vehicle: 24 hours
# Method: Female SCID mice (Taconic CB17-SCRF, ˜20 g body weight) were housed in a germfree barrier. At 6 weeks of age, mice were anesthetized with a mixture of ketamine (80 mg/kg) and xylazine (10 mg/kg). […] After intracardiac injection, the experimenter distributed each animal in unlabeled cages. Each cage was randomly assigned to different treatment groups by a second experimenter.
# The dosing regimen was selected based on results from pharmacokinetic analyses. […] For the detection and enumeration of single cancer cells, the experimenter was not blinded but was assisted by the Nuance FX multiplex imaging software (see below). A fluorescence image was acquired for each tissue section analyzed, approximately 36 serial sections spanning the entire width of each knee-joint. The identification and enumeration of single cells was obtained by three different experimenters, including the Principal Investigator, and occasional discrepancies reconciled prior to compiling the final data.
# Animal model of tumor seeding: SCID mice (Taconic CB17-SCRF, ˜25 g body weight) were housed in a germ-free barrier. At 6 weeks of age, mice were anesthetized with a mixture of ketamine (80 mg/kg) and xylazine (10 mg/kg). Tumor cells were delivered as a 100 μl suspension of serum-free culture medium by carefully accessing the left ventricle of the heart through the chest with an insulin syringe mounting a 30-gauge needle. […] Species- and class-matched irrelevant immunoglobulins (Rabbit IgG, 15 μg/ml, Jackson ImmunoResearch) or DMSO were used for the control groups. […] The dosing regimen was selected based on results from pharmacokinetic analyses. […] Blue-fluorescent beads, 10 μm-polystyrene in diameter (Invitrogen-Molecular Probes) were included in the injection medium and visualized by fluorescence microscopy to validate injection efficiency. Mice showing non-homogenous distribution of or lacking fluorescent beads in tissue sections of lungs and kidneys were removed from the study.
# Soft-tissue organs were then placed either in 30% sucrose for cryoprotection or 1% paraformaldehyde for long-term storage. Bones were decalcified in 0.5M EDTA (Fisher Scientific) for 7 days followed by incubation in 30% sucrose. Tissues were maintained at 4° C. for all aforementioned steps and frozen in O.C.T. medium (Sakura Finetek) by placement over dry-ice chilled 2-methylbutane. Soft-tissue organs as well as knee joints (femora and tibiae) were processed to obtain serial frozen sections, 80 μm in thickness, using a Microm HM550 cryostat.
# Fluorescent images of skeletal metastases were acquired using an Axio Scope.A1 microscope (Zeiss) connected to a Nuance Multispectral Imaging System (PerkinElmer). Digital images were analyzed and processed using the Nuance Software (v. 2.4). […]
# [2] = system: MDA-231 cells; experiment: Enumeration of CTCs in blood of tumor-bearing mice after mobilization with AMD-3100; type: in vivo; conditions: for mobilization of cancer cells (CTCs) into the blood: compound alone, tumor-bearing mice
# Method: Blood was withdrawn by cardiac puncture. AMD-3100 was purchased from Selleckchem (S8030) dissolved in PBS at 1 mg/ml and at −20° C. before use. Tumor-bearing animals were anesthetized as described above and 200-250 μl of systemic blood was collected at the designated time points and transferred in K2EDTA tubes. Blood samples were placed on ice, diluted using a saline buffer (0.5% BSA, 2% EDTA in PBS) at a 1:8 ratio and then filtered through a 70 μm cell strainer immediately prior to achieve a label-free, microfluidic isolation of CTCs. For enumeration, the Captor® system (Clearbridge Biomedics, Singapore) was used, which allows visualization of individual CTCs trapped into crescent-shape microwells. Following complete flowing of the diluted blood, the CTChip® was transferred to the stage of an inverted fluorescent microscope and all trapped CTCs were counted. For the recovery of fully viable CTCs we used the ClearCell® FX system (Clearbridge Biomedics, Singapore), which employs the CTChip® FR1 to isolate cancer cells from blood cells based on size, deformability and inertia through a Dean Flow Fractionation process.
# CTCs were lysed on the same microfluidic chip used for capture using an ice-cooled RNA lysis buffer (Norgen Bioteck Corp.). […] Genespecific primers and probe sets were purchased from Applied Biosystem.
# Cancer cells in the blood are a dynamic pool that constantly fluctuates as cells enter circulation upon being dislodged from tumors, reseed additional sites or perish to anoikis if they fail to do so. This makes determining the time spent by cancer cells in the blood problematic. A major hurdle for these types of studies is the limited ability to monitor the timing of CTCs' entry into and egress from the blood during steady-state conditions. To circumvent these issues, cancer cells were acutely mobilized from tumors in the skeleton and soft-tissues in mice—above steady-state counts—and then thereafter the blood was sampled at specific intervals, reasoning that a time-dependent decline of the number of CTCs in the blood would result from cancer cells seeding back to tissues and dying in circulation. […] When spreading via the systemic circulation, cancer cells become susceptible to anoikis and extending the time spent in the blood increases the odds of incurring this form of apoptotic cell death.
# [3] = system: disseminated tumors; experiment: Additional metastatic lesions after AMD-3100 mobilization; type: in vivo, mice
# Method: Complementary studies were conducted in mice harboring experimental metastases as detected at one week post-grafting, and left either untreated or treated at the second and third week with AMD-3100, alone or in combination with Compound XXII (FIG. 10B). All lesions identified at the fifth week that had not been previously detected at the second week of the experiment were counted and compared among treatment groups.
# [4] = system: MDA-231 cells; experiment: Model of metastatic disease: one-week MDA-231 tumors, bioluminescence imaging; type: in vivo, mice
# Method: (§1) One week after intracardiac injection, animals were randomly assigned to control and treated group and then imaged for tumors in the skeleton and soft-tissue organs. Vehicle or Compound XXII (10 mg/kg) were administered i.p. twice/day, for the entire duration of the study and animals were imaged weekly. Doxorubicin was purchased from LEK Laboratories (D5794), dissolved in PBS at 1 mg/ml and stored at −20° C. before use. All experiments were performed in agreement with NIH guidelines for the humane use of animals. The Drexel University College of Medicine Committee approved all protocols involving the use of animals for the Use and Care of Animals.
# MDA-231 cells were stably transduced with the pLeGo-IG2-Luc2 vector. Prior to imaging, animals were injected i.p. with 150 mg/kg of D-luciferin (ViVoGlo, Promega) and anesthetized using 3% isoflurane. Animals were then transferred to the chamber of an IVIS Lumina XR (PerkinElmer) where they received 2% isoflurane throughout the image acquisition. Fifteen minutes after injection of the substrate, five-minute exposures of both dorsal and ventral views were obtained and quantification and analysis of bioluminescence was performed using the Living Image software.
# To determine whether the pharmacologic targeting of CX3CR1 with Compound I would produce similar effects, mice were grafted with MDA-231 cells and at the first week post-IC injection were randomized and administered with either vehicle or 10 mg/Kg Compound I i.p. twice daily for three weeks, based on pharmacokinetics studies with this compound. Animals were imaged weekly before being euthanized, and treatment with Compound I led to a reduction in the number of tumor foci and overall tumor burden, at least as effectively as observed using CRISPRi (FIGS. 5A-5B).
# [5] = in vivo; conditions: mouse, ip, 10 mg/kg
# Method: (§2) Animals were then anesthetized as described above and 300 μl of blood samples were collected by cardiac puncture at the designated time points and transferred in K2EDTA tubes. Blood samples were placed on ice and tested after dilution.
# [6] = Pharmacokinetic studies in mice, 10 mg/kg i.p.; conditions: 1 hour, vs 10 nM
# Method: as §2
# [7] = system: 4T-1 murine breast cancer cells; experiment: Model of tumor seeding: 4T-1 cells inoculated intracardially in Balb-C mice; type: in vivo; conditions: 10 mg/kg i.p. one hour before and 3 hours after inoculation
# Method: Mice were sacrificed 24 hours post-injection.
# [8] = system: disseminated tumors; type: in vivo
# Method: as §1
# Mice harboring 1-week disseminated tumors were treated with the anthracycline antibiotic Doxorubicin (5 mg/Kg, i.p., q.w.), alone or in combination with Compound XXII (10 mg/Kg, i.p., b.i.d.) for the entire duration of the study. […] When the effects on both number of tumors and tumor burden were examined. […] It could be argued that this lack of effect shown by the chemotherapeutic drug was likely attributable to the short length of treatment, shorter than common protocols used in oncology practice. […] The acute toxicity of Doxorubicin precluded longer experiments. In order to test whether retaining cancer cells in the blood circulation by targeting CX3CR1 could extend their exposure to chemotherapeutics, the fluorescent properties of Doxorubicin were utilized and the red-spectrum emitted fluorescence of CTCs was collected at steady state from mice harboring disseminated tumors which were treated with Doxorubicin (alone, one hour after or three hours prior to administration of Compound XXII). CTCs were collected—independently of the type of treatment—four hours after Doxorubicin administration.
# [9] = system: disseminated tumors; experiment: Docetaxel alone or with Compound XXII in animals bearing disseminated tumors; type: in vivo
# Method: Animals bearing disseminated tumors were treated with Docetaxel (2 mg/Kg, i.p., bis in 7 d.) either alone or in combination with Compound XXII (10 mg/Kg i.p., q12h) and compared to Compound XXII alone (FIGS. 11E-11G).
# [10] = system: MDA-231 cells; experiment: Reseeding of CTCs to bone and lungs (GFP/CM-Dil double-labeled cells); type: in vivo, mice; conditions: AMD-3100 with Compound XXII 10 mg/Kg i.p. 1 hr prior and 3 hrs after; 12 or 24 hours
# Method: The CellTracker™ CM-Dil (ThermoFisher Scientific) was diluted as 50 μg in 50 μl of DMSO to prepare a stock solution. Immediately before use, the stock solution was diluted with D-PBS to a 1 μM working solution. Cells were exposed to the working solution at 37° C. for 5 minutes and then at 4° C. for 15 minutes and then washed with PBS followed by F-12 cell culture medium.
# Green-fluorescent MDA-231 cells were labeled with the cell-tracker CM-Dil, a widely validated red-fluorescent dye that, while being stably retained by non-dividing cells, is transferred to daughter cells upon mitosis and eventually becomes too diluted and undetectable in rapidly dividing cell populations. Based on these features, GFP/CM-Dil double-labeled cancer cells, when reseeding from established tumors would emit green fluorescence but lack red fluorescence, as the results of high proliferation during tumor growth and consequential dilution of the CM-Dil dye. Cancer cells that became dormant upon seeding different tissues following intracardiac injection would retain the CM-Dil dye, thereby emitting signals in both green and red fluorescent spectra (FIG. 9A). For these experiments, mice were grafted with double-labeled cancer cells in the left cardiac ventricle and allowed to develop tumors for two weeks. […]
# [11] = single dose 5 mg/kg, mice with 3-week tumors
# [12] = 10 mg/kg i.p. twice/day from one week post-inoculation, vs vehicle
# [13] = Doxorubicin 5 mg/Kg q.w. in combination with Compound XXII 10 mg/Kg i.p. b.i.d.
# [14] = Doxorubicin alone 5 mg/Kg i.p. q.w., two weeks
smiles,measurement,setting,value
"c1cc(CN2CCCNCCNCCCNCC2)ccc1CN1CCCNCCNCCCNCC1 [AMD-3100, reference compound]",seeding of the skeleton by MDA-231 breast cancer cells,[1],unaffected
same,area under the curve of CTC counts vs time,[2]; AMD-3100 alone,345
same,mobilization of cancer cells (CTCs) into the blood,[2],rapid increase in the number of CTCs
same,time of peak number of CTCs post-treatment,[2]; [11],3 h
same,time of return of CTCs to steady-state counts,[2]; [11],48 h
same,number of additional lesions vs untreated animals,"[3]; AMD-3100 alone at second and third week, lesions at fifth week",doubled number of additional lesions
"O=c1c2cccn2c2ccccc2n1CCCN1CCC(c2ccc(Cl)cc2)CC1 [Compound I, 5-(3-(4-(4-chlorophenyl)piperidin-1-yl)propyl)pyrrolo[1,2-a]quinoxalin-4(5H)-one]",reduction in DTCs vs vehicle,"[1]; 10 mg/Kg i.p. twice, one hour prior and three hours after IC inoculation",approximately 60%
same,reduction in DTCs vs vehicle,[1]; MDA-231 cells pre-incubated with 10 nM compound,approximately 60%
same,number of tumors (tumor foci),[4]; [12],reduction
same,overall tumor burden,[4]; [12],reduction
same,concentration at 1 h,[5]; in vivo,89 ng/mL and 210 nM
same,increase of blood level over lowest fully effective dose in vitro,[6],20 fold
"O=C1CN(CCCn2c(=O)c3cccn3c3ccccc32)CCN1c1ccc(Cl)cc1 [Compound XXII, 5-(3-(4-(4-chlorophenyl)-3-oxopiperazin-1-yl)propyl)pyrrolo[1,2-a]quinoxalin-4(5H)-one]",seeding of the skeleton by 4T-1 breast cancer cells,[7],severely impaired
same,number of CTCs positive for intracellular Doxorubicin,"[8]; Compound XXII administered prior to Doxorubicin, CTCs collected four hours after Doxorubicin",significant increase
same,anti-tumor effect compared with Doxorubicin,"[8]; Compound XXII alone 10 mg/Kg i.p. b.i.d., short period of time",superior anti-tumor effect than Doxorubicin
same,containment of tumor numbers,[8]; [13],comparable to Compound XXII alone
same,mitigation of tumor burden,[8]; [13],comparable to Compound XXII alone
same,synergistic effects of combination,[8]; Doxorubicin combined with Compound XXII,Synergistic effects were minimal
same,tumor burden after one week of treatment vs Compound XXII alone,"[8]; Doxorubicin in combination with Compound XXII, 1 week",significantly superior effect
same,seeding of the skeleton by MDA-231 breast cancer cells,[1],severely impaired
same,"overall tumor burden, % of the levels in the control group",[4]; 10 mg/kg i.p. twice/day from one week post-inoculation,below 50%
same,number of tumors (tumor foci),[4]; [12],strongly reduced
same,overall tumor burden,[4]; [12],strongly reduced
same,overall survival,"[4]; 10 mg/kg i.p. twice/day, Kaplan-Meier, vs vehicle",increase in overall survival
same,overall efficacy for lowering total tumor burden,"[9]; Compound XXII alone 10 mg/Kg i.p. q12h, each time point","comparable to the current standard of care, docetaxel alone"
same,synergistic effects of combination,"[9]; Docetaxel with Compound XXII, especially after 11 days of treatment",Synergistic effects were observed
same,area under the curve of CTC counts vs time,"[2]; AMD-3100 combined with Compound XXII, then Compound XXII alone twice/day",731
same,percentage of apoptotic CTCs (Bax/Bcl-2 ratio) vs AMD-3100 alone,"[2]; AMD-3100 in combination with Compound XXII, CTCs collected at 12 and 24 hours",increased the percentage of apoptotic CTCs
same,magnitude of increase in CTC counts vs AMD-3100 alone,[2]; Compound XXII co-administered with AMD-3100,more than two-fold higher
same,mobilization of cancer cells (CTCs) into the blood,[2],does not mobilize cancer cells back in the blood
same,AMD-3100-induced increase of additional lesions,[3]; AMD-3100 in combination with Compound XXII,ablated
same,number of reseeded cancer cells in lung and knee-joints,[10],dramatically reduced
same,concentration at 1 h,[5]; plasma,~200 ng/mL
same,concentration at 6 h,[5]; plasma,60 ng/mL
"COc1cccc2c1C(=O)c1c(O)c3c(c(O)c1C2=O)C[C@@](O)(C(=O)CO)C[C@@H]3O[C@H]1C[C@H](N)[C@H](O)[C@H](C)O1 [Doxorubicin, reference compound]",number of tumors vs control,[8]; [14],failed to show any significant effect
same,tumor burden vs control,[8]; [14],failed to show any significant effect
"CC(=O)O[C@@]12CO[C@@H]1C[C@H](O)[C@@]1(C)C(=O)[C@H](O)C3=C(C)[C@@H](OC(=O)[C@H](O)[C@@H](NC(=O)OC(C)(C)C)c4ccccc4)C[C@@](O)([C@@H](OC(=O)c4ccccc4)[C@H]21)C3(C)C [docetaxel, reference compound]",tumor growth,[9]; docetaxel alone 2 mg/Kg i.p. bis in 7 d.,significantly suppressed tumor growth
